Test results as given in patent publication US20070128217A1 (priority 2003, published 2007).

Tests used:
[1] = test system: rabbit serum obtained by immunizing a rabbit with the SARS-CoV strain Frankfurt 1; format: binding; parameters: Binding of a rabbit serum to linear peptides / Binding of a rabbit serum to looped peptides / Rabbit serum linear peptides / Rabbit serum looped peptides / Binding of a rabbit serum to linear peptides of protein N of SARS-CoV Urbani (Rabbit serum linear peptides) / Binding of a rabbit serum to looped/cyclic peptides of protein N of SARS-CoV Urbani (Rabbit serum looped peptides): unit not given here
[2] = test system: antibodies in sera from SARS patients (sera 1a, 1b, 2, 6, 37, 62, London, SARS-yellow, SARS-green); format: binding, human; parameters: Binding of serum 6 to linear peptides of protein X1 of SARS-CoV Urbani / Binding of serum 37 to linear peptides of protein X1 of SARS-CoV Urbani / Binding of serum 6 to looped/cyclic peptide (PEPSCAN-ELISA) / Binding of serum 37 to looped/cyclic peptide (PEPSCAN-ELISA) / Binding of serum 37 to looped/cyclic peptides of protein X1 of SARS-CoV Urbani / Binding of serum 6 to linear peptides of protein X2 / Binding of serum 37 to linear peptides of protein X2 / Binding of serum 37 to looped/cyclic peptides of protein X2 of SARS-CoV Urbani / Binding of serum 6 to linear peptides of protein M of SARS-CoV Urbani / Binding of serum 37 to linear peptides of protein M of SARS-CoV Urbani / Binding of serum 6 to looped/cyclic peptides of protein M of SARS-CoV Urbani / Binding of serum 37 to looped/cyclic peptides of protein M of SARS-CoV Urbani / Binding of serum 6 to linear peptides of protein X3 of SARS-CoV Urbani / Binding of serum 37 to linear peptides of protein X3 of SARS-CoV Urbani / Binding of serum 37 to looped/cyclic peptides of protein X3 of SARS-CoV Urbani / Binding of serum 6 to linear peptides of protein X4 of SARS-CoV Urbani / Binding of serum 37 to linear peptides of protein X4 of SARS-CoV Urbani / Binding of serum 37 to looped/cyclic peptides of protein X4 of SARS-CoV Urbani / Binding of serum 6 to linear peptides of protein X5 of SARS-CoV Urbani / Binding of serum 37 to linear peptides of protein X5 of SARS-CoV Urbani / Binding of serum 37 to looped/cyclic peptides of protein X5 of SARS-CoV Urbani / Binding of serum 6 to linear peptides of protein N of SARS-CoV Urbani / Binding of serum 37 to linear peptides of protein N of SARS-CoV Urbani / Binding of serum 6 to linear peptide (PEPSCAN-ELISA) / Binding of serum 1a to looped/cyclic peptides of protein N of SARS-CoV Urbani / Binding of serum 1b to looped/cyclic peptides of protein N of SARS-CoV Urbani / Binding of serum 2 to looped/cyclic peptides of protein N of SARS-CoV Urbani / Binding of serum 6 to looped/cyclic peptides of protein N of SARS-CoV Urbani / Binding of serum 37 to looped/cyclic peptides of protein N of SARS-CoV Urbani / Binding of serum 62 to looped/cyclic peptides of protein N of SARS-CoV Urbani / Binding of serum London to looped/cyclic peptides of protein N of SARS-CoV Urbani / Binding of serum SARS-green to looped/cyclic peptides of protein N of SARS-CoV Urbani: unit not given here
[3] = test system: control sera (pooled serum of ten healthy LUMC hospital workers; commercial negative donor pooled serum from the Dutch bloodbank); format: binding, human; parameters: Binding of Control serum LUMC to linear peptides / Binding of Control serum Blood-bank to linear peptides / Binding of Control serum LUMC to looped peptides / Binding of Control Serum Blood-Bank to Looped peptides / Binding of Control serum LUMC to linear peptides of the protein M of SARS-CoV Urbani / Binding of Control serum Blood-bank to linear peptides of the protein M of SARS-CoV Urbani / Binding of Control serum LUMC to looped peptides of the protein M of SARS-CoV Urbani / Binding of Control Serum Blood-Bank to Looped peptides of the protein M of SARS-CoV Urbani: unit not given here

Row | Sequence | Binding of a rabbit serum to linear peptides [1] | Binding of a rabbit serum to looped peptides [1] | Binding of serum 1a to linear peptides of protein X1 of SARS-CoV Urbani [2] | Binding of serum 1a to looped/cyclic peptide (PEPSCAN-ELISA) [2] | Binding of serum 1b to linear peptides of protein X1 of SARS-CoV Urbani [2] | Binding of serum 1b to looped/cyclic peptide (PEPSCAN-ELISA) [2] | Binding of serum 2 to linear peptides of protein X1 of SARS-CoV Urbani [2] | Binding of serum 2 to looped/cyclic peptide (PEPSCAN-ELISA) [2] | Binding of serum 6 to linear peptides of protein X1 of SARS-CoV Urbani [2] | Binding of serum 6 to looped/cyclic peptide (PEPSCAN-ELISA) [2] | Binding of serum 37 to linear peptides of protein X1 of SARS-CoV Urbani [2] | Binding of serum 37 to looped/cyclic peptide (PEPSCAN-ELISA) [2] | Binding of serum 62 to linear peptides of protein X1 of SARS-CoV Urbani [2] | Binding of serum London to linear peptides of protein X1 of SARS-CoV Urbani [2] | Binding of serum SARS-green to linear peptides of protein X1 of SARS-CoV Urbani [2] | Binding of serum SARS-yellow to linear peptides of protein X1 of SARS-CoV Urbani [2] | Binding of Control Serum Blood-Bank to Looped peptides [3] | Binding of Control serum Blood-bank to linear peptides [3] | Binding of Control serum LUMC to linear peptides [3] | Binding of Control serum LUMC to looped peptides [3] | further results
1 | YALIYFLQCINACRI | 0.1 | 0.0 | 0.7 | 0.2 | 0.5 | 0.1 | 0.5 | 0.1 | 0.4 | 0.0 | 0.6 | 0.1 | 0.6 | 0.3 | 0.2 | 0.4 | 0.3 | 0.6 | 0.6 | 0.2 | Binding of serum 62 to looped/cyclic peptide (PEPSCAN-ELISA) [2]: 0.2; Binding of serum London to looped/cyclic peptide (PEPSCAN-ELISA) [2]: 0.1; Binding of serum SARS-green to looped/cyclic peptide (PEPSCAN-ELISA) [2]: 0.2; Binding of serum SARS-yellow to looped/cyclic peptide (PEPSCAN-ELISA) [2]: 0.0
2 | YFLQCINACRIIMRC | 0.1 | 0.8 | 0.7 | 0.6 | 0.6 | 0.4 | 0.5 | 0.4 | 0.5 | 1.6 | 0.6 | 0.5 | 0.6 | 0.2 | 0.3 | 0.3 | 0.6 | 0.8 | 0.7 | 0.6 | Binding of serum 62 to looped/cyclic peptide (PEPSCAN-ELISA) [2]: 0.6; Binding of serum London to looped/cyclic peptide (PEPSCAN-ELISA) [2]: 1.6; Binding of serum SARS-green to looped/cyclic peptide (PEPSCAN-ELISA) [2]: 0.2; Binding of serum SARS-yellow to looped/cyclic peptide (PEPSCAN-ELISA) [2]: 0.6
3 | YFTEVYYQLESTQIT | 0.1 | 0.4 | 0.7 |  | 0.6 |  | 0.4 |  | 0.4 |  | 0.6 |  | 0.6 | 0.3 | 0.3 | 0.3 | 0.4 | 0.4 | 0.4 | 0.5 | Binding of serum 1a to looped/cyclic peptides of protein X1 of SARS-CoV Urbani [2]: 0.5; Binding of serum 1b to looped/cyclic peptides of protein X1 of SARS-CoV Urbani [2]: 0.5; Binding of serum 2 to looped/cyclic peptides of protein X1 of SARS-CoV Urbani [2]: 0.3; Binding of serum 6 to looped/cyclic peptides of protein X1 of SARS-CoV Urbani [2]: 0.2; Binding of serum 37 to looped/cyclic peptides of protein X1 of SARS-CoV Urbani [2]: 0.4; Binding of serum 62 to looped/cyclic peptides of protein X1 of SARS-CoV Urbani [2]: 0.4; Binding of serum London to looped/cyclic peptides of protein X1 of SARS-CoV Urbani [2]: 0.2; Binding of serum SARS-green to looped/cyclic peptides of protein X1 of SARS-CoV Urbani [2]: 0.2; Binding of serum SARS-yellow to looped/cyclic peptides of protein X1 of SARS-CoV Urbani [2]: 0.3
